The text below walks through data of patent US20210017607A1, “Methods of Predicting Responsiveness to Cancer Therapies” (The University of Chicago, priority 2019, published 2021).

Square brackets hold non-standard residues; d marks the D form. Peptide text beside a SMILES is read from it. * marks the point of attachment. dPhe(4-NHCONH2) = NC(=O)Nc1ccc(C[C@@H](N)C(=O)O)cc1; Dihydroorotyl(S) = O=C1C[C@@H](C(=O)*)NC(=O)N1; dPhe(4-Cl) = N[C@H](Cc1ccc(Cl)cc1)C(=O)O; Phe(4-NH2) = Nc1ccc(C[C@H](N)C(=O)O)cc1; d2Nal = N[C@H](Cc1ccc2ccccc2c1)C(=O)O; Lys(iPr) = CC(C)NCCCC[C@H](N)C(=O)O; d3Pal = N[C@H](Cc1cccnc1)C(=O)O

Test [1] concerns Myc-CAP (STING^lo) tumors. Put plainly: Myc-CAP syngeneic tumor growth. Conditions: immunocompetent syngeneic mice. The test is classed as in vivo, mouse. The procedure: FIGS. 25A and 25B. […] (25A-25B) Myc-CAP (STING^lo) tumor-bearing syngeneic mice were treated with the indicated drug(s) until untreated tumors reached approx. 2500 mm^3. Tumor volume curves for duration of treatment are shown.
FIGS. 26A-26D. […] Immunodeficient athymic nude (26A) and NOD-SCID (26B) mice were engrafted with Myc-CAP (STING^lo) tumors and treated with the indicated drug(s) until untreated tumors reached approx. 2000 mm^3. Tumor volume curves for duration of treatment are shown. For 26A-26B, n=3-4 mice per group. (26C-26D) Single-cell suspensions were generated from harvested tumors and analyzed by flow cytometry for the indicated immune cell populations and their activation states. Data are represented relative to CD45+ immune cells. For 26C-26D, n=3-5 animals per treatment group from 2 independent experiments. Significance/p-values were calculated by […].
FIGS. 29A-29M. […] Myc-CAP cancer cells were treated with the indicated drugs singly or in combination for 36 hours. (29A) Cells were stained with anti-mouse specific p-γH2AX antibody and a fluorescently labeled secondary antibody for determination of DNA DSBs, which were quantified by confocal microscopy. (29B) Protein extracts from cells in 29A were analyzed for the indicated pharmacodynamic biomarkers by western blotting; (29C) Annexin V-PI staining was done to assess frequency of live cells (Annexin V^− PI^−) following drug treatment. (29D) Ultracentrifugation was utilized to purify microvesicles (MVs) from supernatants in treatment groups in (29A) and associated DNA DSBs was quantified by Nanodrop®. Independent experiments n=2. (29E) Ultracentrifugation was utilized to purify MVs from supernatants in indicated treatment groups in FIG. 17A, and associated DNA DSBs were quantified by Nanodrop®; n=2 independent experiments. (29F) Syngeneic mice were engrafted with Myc-CAP (STING^lo) cells, and tumors were harvested when the tumor volume reached 400 mm^3. Single cell suspensions of the tumors were treated with the indicated drug(s), in the presence or absence of GW4869 (MV biogenesis inhibitor). (29G) Bone marrow derived macrophage (BMDMs) were co-cultured for 30 hours with supernatants (−/+ exogenous 50 units of DNase I pre-treatment for 30 minutes) from Myc-CAP cells that were treated with the indicated drug(s) for 36 hours. (29H) cGAMP (10 μg/mL) was pre-incubated with 10 units of DNAse I or mock control for 30 minutes and then added to BMDMs for 30 hours. (29I-29L) STING^+/+/STING^−/− BMDMs were co-cultured for 36 hours with supernatants from Myc-CAP and B6-Myc cancer cells that were treated with the indicated drug(s) for 36 hours. Supernatants were collected from 29F-29L at the end of treatment and analyzed for IFNβ1 by ELISA. (29M) Myc-CAP (STING^lo) tumor-bearing mice were treated with the indicated drug(s) until tumors first reached approx. 2500 mm^3. For the degerelix/rucaparib/buparlisib combination, additional cohorts of mice underwent concomitant treatment with STING antagonist H-151 or GW4869. Tumor volume was recorded daily for duration of experiment. For in vitro experiments, n=2 independent experiments and for in vivo experiments n=3-4 animals /group.

The subject of test [2] is Myc-CAP (STING^lo) tumors. In words: Immune profiling of Myc-CAP tumors (flow cytometry, qRT-PCR). The test is classed as in vivo, mouse. Particulars: degarelix for 10 days. As to the method: FIGS. 24A-24G. […] Myc-CAP (STING^lo) tumor-bearing syngeneic mice were treated with degarelix (chemical castration) for 10 days. At the end of treatment, tumors were harvested and analyzed by flow cytometry for infiltration of CD45+ immune cells (24A), macrophages (24B) and CD4/CD8 T cells (24C-24D). Mean fluorescence intensity (MFI) is depicted for PD-Ll expression on CD45−/CD45+ cells (24E-24F) and TAMs (24G) within the TME; n=3-5 animals/group; Significance/p-values were calculated by Un-paired t-test.
FIGS. 26A-26D. […] (26C-26D) Single-cell suspensions were generated from harvested tumors and analyzed by flow cytometry for the indicated immune cell populations and their activation states. […] Significance/p-values were calculated by […].
FIGS. 27A-27D. […] Single-cell suspensions were generated from harvested tumors and analyzed by flow cytometry for CD4 infiltration (27A) and activation (27C). (27B, 27D) Single-cell suspensions were generated from harvested tumors and analyzed by flow cytometry for the indicated immune cell populations and their activation states. […] Significance/p-values were calculated by one-way ANOVA.
FIGS. 28A and 28B. […] (28B) Single-cell suspensions were generated from harvested tumors and analyzed by flow cytometry for macrophage (F4/80+) Arginase I expression. n=3 animals/group; Significance/p-values were calculated by one-way ANOVA. […]
(In general: In flow cytometry, cells or beads pass a laser one at a time.)

Regarding `CC(=O)N[C@H](Cc1ccc2ccccc2c1)C(=O)N[C@H](Cc1ccc(Cl)cc1)C(=O)N[C@H](Cc1cccnc1)C(=O)N[C@@H](CO)C(=O)N[C@@H](Cc1ccc(NC(=O)[C@@H]2CC(=O)NC(=O)N2)cc1)C(=O)N[C@H](Cc1ccc(NC(N)=O)cc1)C(=O)N[C@@H](CC(C)C)C(=O)N[C@@H](CCCCNC(C)C)C(=O)N1CCC[C@H]1C(=O)N[C@H](C)C(N)=O` [degarelix] (Ac-[d2Nal][dPhe(4-Cl)][d3Pal]S[Phe(4-NH2)](Dihydroorotyl(S))[dPhe(4-NHCONH2)]L[Lys(iPr)]P[dA]-NH2), the tumor growth response result in test [1] is given as “not observed”. In test [2], the “immune infiltration and PD-L1 expression within the TME after chemical castration” value was “increases macrophage and CD4+ T cell infiltration and PD-L1 expression”.
